Reference: US20030180398A1, “Composition for treating gastric ulcer and a process for preparing the same” (priority 2002, published 2003)

What was measured:
[1] = tested on: Cold Restraint Ulcer (CRU); assay: Cold Restraint Ulcers (CRU) model; assay type: in vivo, rats
Protocol: Adult rats of either sex, weighing 150-175 grams are fasted for 24 hours in metallic cages with raised mesh bottoms to prevent coprophagia and were allowed free access to water. The test drugs were administered 45 minutes before immobilizing the animals. The rats were immobilized in the restraint cage and kept at 4° C. in BOD incubator for 2 hours (According to the method of Senay and Levine 1967). The animals were sacrificed immediately after the restraint period. The abdomen was cut opened; stomach was taken out and incised along the greater curvature to observe the gastric lesions with the help of Magnascope (5× magnification)
The following arbitrary scoring system was used to grade the severity and intensity of the lesions:
1. Shedding of epithelium=10
2. Petechial and frank hemorrhages=20
4. More than two ulcers=40
The presence of any of these lesions was considered as a positive ulcerogenic response which has been shown as percentage of rats showing gastric lesions. The severity of ulcers is expressed in terms of ulcer index, which is the mean score of gastric lesions of all the rats in a group. The term Ulcer Index is defined as:
Ulcer Index (U.I.)=Us+Up×10^−1
where Us=Mean severity of ulcer score and
Up=Percentage of animals with Ulcer incidences
The percentage protection is calculated as follows:
Percentage protection=(C−T/C)×100.
where C=Number of animals showing ulcer response in control group and
T=Number of animals showing ulcer response in test group.

[2] = tested on: Aspirin induced gastric ulcer; assay: Aspirin induced gastric ulcer model; assay type: in vivo, rats
Protocol: Gastric ulceration was induced by aspirin according to the method of Djahanguiri (1969). Aspirin (150 mg/Kg.) was administered per orally as a suspension in gum-acacia and the animal was sacrificed 5 hr. after the aspirin treatment and the ulcer index with protection index were calculated.

[3] = tested on: histamine induced duodenal ulcer; assay: Histamine induced duodenal ulcer model; assay type: in vivo, Guinea pig
Protocol: 1. Animals were fasted for 24 hours with access to water.
2. The drug was given orally 1 hour prior to the histamine administration.
3. Histamine was administered in a dose of 0.25 mg/Kg, i.m. at 30 minutes interval for 7 times and it induced 100% duodenal ulceration in guinea pig (According to the method of Watt and Eagleton 1964).
4. The animals were sacrificed after half an hour of last injection under ether anesthesia.
5. The stomach along with duodenum were removed washed thoroughly and examined for the lesions. Ulcer index and protection index were calculated.

[4] = tested on: Alcohol induced gastric ulcers; assay: Alcohol (ethanol) induced gastric ulcers in rats; assay type: in vivo
Protocol: 1. Adult rats of either sex were taken; weighing 150-175 grams were fasted for 24 hours with free access to water.
2. The test drugs were administered (p.o.) 45 minutes before alcohol administration.
3.1 ml of chilled absolute alcohol was administered (p.o.) to the rats (According to the Wittetal).
4. Immediately after 1 hour, the animals were anesthetized, abdomen was cut opened stomach was taken out and incised along the greater curvature to observe the gastric lesions.
The ulcers are examined under the 5× magnification with the help of magnascope.
Absolute ethanol lesions appears as blackish lesions grouped in patches of varying size, usually parallel to the major axis of the stomach.
5. The lengths of the lesions are measured and summated to give a total lesion score, then calculated and expressed in percentage.

[5] = tested on: pyloric ligation induced ulcer; assay: Pyloric ligation induced ulcer model; assay type: in vivo, rats
Protocol: 1. Animals were fasted for 24 hours in the raised mesh bottom cages to prevent coprophagia and were allowed free access to water. 2. The control group of rats was feed with the vehicle and the experimental groups with their respective drugs 45 minutes prior to the ligation. 3. The animal was anesthetized, abdomen was cut opened under xiphoid process, and the pyloric portion of the stomach was slightly lifted and ligated avoiding any damage to the adjacent blood vessels (According to the method of Shay et al. 1945). 4. The animals were stitched and kept for 4 hours with free access to water. 5. After 4 hours the animals were sacrificed under ether anesthesia and the stomach was dissected out incised along the greater curvature. 6. The stomach was washed thoroughly and the ulcer index was scored as per in other ulcer models.

[6] = Aspirin 150 mg/Kg p.o., 20 mg/Kg

For `COc1ccc2[nH]c([S+]([O-])Cc3ncc(C)c(OC)c3C)nc2c1` (centres unmarked) [Omeprazole], the “Mean severity of ulcer score” value ([1]; 10 mg/Kg p.o.) was 07, the “Percentage of ulcer incidence (No. of rats showing ulcer/total No. of rats used)” value ([1]; 10 mg/Kg p.o.) was 50 (5/10) % and the Ulcer index ([1]; 10 mg/Kg p.o.) was 5.7. The “Ulcer severity score 10 (Shedding of epithelium), No. of rats showing lesions/No. of rats tested” value ([1]; 10 mg/Kg p.o.) was 3/10, the “Ulcer severity score 20 (Petechial and frank hemorrhages), No. of rats showing lesions/No. of rats tested” value ([1]; 10 mg/Kg p.o.) was 2/10 and the Protection index ([1]; 10 mg/Kg p.o., versus CRU control) was 54.03. For the same compound, the “Percentage protection in respect to the protection of Omeprazole” value (shortened to “Percentage protection”) ([1]; 10 mg/Kg, standard taken as 100%) was 100%, the “Mean severity of ulcer score” value [2, 6] was 6.6 and the “Percentage of ulcer incidence (No. of rats showing ulcer/total No. of rats used)” value [2, 6] was 50 (3/6) %. The Ulcer index [2, 6] was 5.66, the “Ulcer severity score 10 (Shedding of epithelium), No. of rats showing lesions/No. of rats tested” value [2, 6] was 2/6 and the “Ulcer severity score 20 (Petechial and frank hemorrhages), No. of rats showing lesions/No. of rats tested” value [2, 6] was 1/6. The Protection index ([2]; Aspirin 150 mg/Kg p.o., 20 mg/Kg, versus aspirin control) was 54.81, the “Percentage protection” value ([2]; aspirin induced ulcer, 10 mg/Kg, standard taken as 100%) was 100% and the “Mean severity of ulcer score” value ([3]; Histamine i.m., 10 mg/Kg p.o.) was 6.66. The “Percentage of ulcer incidence (No. of animals showing ulcer/total No. of animals used)” value ([3]; Histamine i.m., 10 mg/Kg p.o.) was 33.33 (1/3) %, the Ulcer index ([3]; Histamine i.m., 10 mg/Kg p.o.) was 3.99 and the “Ulcer severity score 20, No. Guinea pig showing lesions/No. Guinea pig tested” value ([3]; Histamine i.m., 10 mg/Kg p.o.) was 1/3. The “Volume of gastric fluid” value ([3]; Histamine i.m., 10 mg/Kg p.o.) was 1.0 ± 0.2 mL, the “% Protection” value ([3]; Histamine i.m., 10 mg/Kg p.o., versus ulcer control) was 70.79% and the “Percentage protection” value ([3]; histamine induced duodenal ulcer, Omeprazole taken as 100%) was 100%. For the same compound, the “Length of hemorrhagic bands (mm ± SE)” value ([4]; 100 mg/Kg p.o. + Ethanol) was 56.0 ± 9.12 mm, the “Percentage protection” value ([4]; Alcohol induced ulcer, omeprazole taken as 100%) was 100.0% and the “Ulcer index” value ([5]; Ligation, 10 mg/Kg p.o.) was 6.6. For the same compound, the “Protection index” value ([5]; Ligation, 10 mg/Kg p.o., versus ligation control) was 51.44 and the “Percentage protection” value ([5]; pyloric ligation induced ulcer, Omeprazole taken as 100%) was 100%.
